From publication PMC11003488 (Journal of Enzyme Inhibition and Medicinal Chemistry, 2023)

How the values were obtained:
CCRF-CEM = assay: NCI-60 SRB growth inhibition, one-dose and five-dose; assay type: cell-based; conditions: Homo sapiens
K-562 = assay: as above; assay type: cell-based; conditions: Homo sapiens
MOLT-4 = assay: as above; assay type: cell-based; conditions: Homo sapiens
SR = assay: as above; assay type: cell-based; conditions: Homo sapiens
A549/ATCC = assay: as above; assay type: cell-based; conditions: Homo sapiens
EKVX = assay: as above; assay type: cell-based; conditions: Homo sapiens
HOP-92 = assay: as above; assay type: cell-based; conditions: Homo sapiens
NCI-H23 = assay: as above; assay type: cell-based; conditions: Homo sapiens
NCI-H322M = assay: as above; assay type: cell-based; conditions: Homo sapiens
NCI-H460 = assay: as above; assay type: cell-based; conditions: Homo sapiens
NCI-H522 = assay: as above; assay type: cell-based; conditions: Homo sapiens
COLO 205 = assay: as above; assay type: cell-based; conditions: Homo sapiens
HCT-15 = assay: as above; assay type: cell-based; conditions: Homo sapiens
HT29 = assay: as above; assay type: cell-based; conditions: Homo sapiens
SW-620 = assay: as above; assay type: cell-based; conditions: Homo sapiens
SF-268 = assay: as above; assay type: cell-based; conditions: Homo sapiens
SF-295 = assay: as above; assay type: cell-based; conditions: Homo sapiens
SNB-19 = assay: as above; assay type: cell-based; conditions: Homo sapiens
SNB-75 = assay: as above; assay type: cell-based; conditions: Homo sapiens
U251 = assay: as above; assay type: cell-based; conditions: Homo sapiens
LOX IMVI = assay: as above; assay type: cell-based; conditions: Homo sapiens
MALME-3M = assay: as above; assay type: cell-based; conditions: Homo sapiens
M14 = assay: as above; assay type: cell-based; conditions: Homo sapiens
SK-MEL-2 = assay: as above; assay type: cell-based; conditions: Homo sapiens
SK-MEL-28 = assay: as above; assay type: cell-based; conditions: Homo sapiens
SK-MEL-5 = assay: as above; assay type: cell-based; conditions: Homo sapiens
UACC-257 = assay: as above; assay type: cell-based; conditions: Homo sapiens
OVCAR-3 = assay: as above; assay type: cell-based; conditions: Homo sapiens
OVCAR-4 = assay: as above; assay type: cell-based; conditions: Homo sapiens
OVCAR-5 = assay: as above; assay type: cell-based; conditions: Homo sapiens
NCI/ADR-RES = assay: as above; assay type: cell-based; conditions: Homo sapiens
SK-OV-3 = assay: as above; assay type: cell-based; conditions: Homo sapiens
786-0 = assay: as above; assay type: cell-based; conditions: Homo sapiens
A498 = assay: as above; assay type: cell-based; conditions: Homo sapiens
CAKI-1 = assay: as above; assay type: cell-based; conditions: Homo sapiens
RXF 393 = assay: as above; assay type: cell-based; conditions: Homo sapiens
DU-145 = assay: as above; assay type: cell-based; conditions: Homo sapiens
MCF7 = assay: as above; assay type: cell-based; conditions: Homo sapiens
BT-549 = assay: as above; assay type: cell-based; conditions: Homo sapiens
T-47D = assay: as above; assay type: cell-based; conditions: Homo sapiens, T47D
MDA-MB-468 = assay: as above; assay type: cell-based; conditions: Homo sapiens
[1] = system: NCI 60-cell line panel (full panel); assay: NCI-60 SRB growth inhibition, full panel mean / MG-MID; assay type: cell-based, human
[2] = read-out: percent growth inhibition

SMILES: Cc1ccc(CNc2cccc(C(=O)/C=C/c3cccnc3)c2)cc1 [Compound 5a, (E)-1–(3-((4-methylbenzyl)amino)phenyl)-3-(pyridin-3-yl)prop-2-en-1-one]
- GI50 (CCRF-CEM): 2.58 µM
- inhibition at 10 µM (CCRF-CEM; [2]): 53.1%
- GI50 (K-562; K562): 3.09 µM
- inhibition at 10 µM (K-562; K562, read-out: percent growth inhibition): 93.6%
- GI50 (MOLT-4; MOLT-4): 3.54 µM
- inhibition at 10 µM (MOLT-4; MOLT-4, read-out: percent growth inhibition): 57.3%
- GI50 (SR): 2.82 µM
- inhibition at 10 µM (SR; [2]): 85.6%
- GI50 (A549/ATCC; A549): 17.3 µM
- inhibition at 10 µM (A549/ATCC; A549, read-out: percent growth inhibition): 27.2%
- GI50 (EKVX): 12.8 µM
- inhibition at 10 µM (EKVX; [2]): 52.3%
- GI50 (HOP-92; HOP-92): 10.9 µM
- inhibition at 10 µM (HOP-92; HOP-92, read-out: percent growth inhibition): 41.8%
- GI50 (NCI-H23; NCI-H23): 12.2 µM
- inhibition at 10 µM (NCI-H23; NCI-H23, read-out: percent growth inhibition): 47.9%
- GI50 (NCI-H322M): 15.7 µM
- inhibition at 10 µM (NCI-H322M; [2]): 19.6%
- GI50 (NCI-H460; NCI-H460): 12.9 µM
- inhibition at 10 µM (NCI-H460; NCI-H460, read-out: percent growth inhibition): 42%
- GI50 (NCI-H522; NCI-H522): 13.8 µM
- inhibition at 10 µM (NCI-H522; NCI-H522, read-out: percent growth inhibition): 134%
- GI50 (COLO 205; COLO 205): 17.1 µM
- inhibition at 10 µM (COLO 205; COLO 205, read-out: percent growth inhibition): 36.9%
- GI50 (HCT-15; HCT-15): 4.15 µM
- inhibition at 10 µM (HCT-15; HCT-15, read-out: percent growth inhibition): 156%
- GI50 (HT29; HT-29): 14.1 µM
- inhibition at 10 µM (HT29; HT-29, read-out: percent growth inhibition): 159%
- GI50 (SW-620; SW-620): 2.03 µM
- inhibition at 10 µM (SW-620; SW-620, read-out: percent growth inhibition): 173%
- GI50 (SF-268; SF-268): 12.8 µM
- inhibition at 10 µM (SF-268; SF-268, read-out: percent growth inhibition): 38.2%
- GI50 (SF-295; SF-295): 14 µM
- inhibition at 10 µM (SF-295; SF-295, read-out: percent growth inhibition): 58.9%
- GI50 (SNB-19; SNB-19): 14 µM
- inhibition at 10 µM (SNB-19; SNB-19, read-out: percent growth inhibition): 34.9%
- GI50 (SNB-75; SNB-75): 13.1 µM
- inhibition at 10 µM (SNB-75; SNB-75, read-out: percent growth inhibition): 46.6%
- GI50 (U251; U-251): 9.87 µM
- inhibition at 10 µM (U251; U-251, read-out: percent growth inhibition): 193%
- GI50 (LOX IMVI): 1.88 µM
- inhibition at 10 µM (LOX IMVI; [2]): 195%
- GI50 (MALME-3M): 13.6 µM
- inhibition at 10 µM (MALME-3M; [2]): 127%
- GI50 (M14; M14): 13.1 µM
- inhibition at 10 µM (M14; M14, read-out: percent growth inhibition): 92.7%
- GI50 (SK-MEL-2; SK-MEL-2): 14.3 µM
- inhibition at 10 µM (SK-MEL-2; SK-MEL-2, read-out: percent growth inhibition): 35.9%
- GI50 (SK-MEL-28; SK-MEL-28): 14.7 µM
- inhibition at 10 µM (SK-MEL-28; SK-MEL-28, read-out: percent growth inhibition): 71.6%
- GI50 (SK-MEL-5; SK-MEL-5): 8.96 µM
- inhibition at 10 µM (SK-MEL-5; SK-MEL-5, read-out: percent growth inhibition): 74.9%
- GI50 (UACC-257; UACC-257): 14.4 µM
- inhibition at 10 µM (UACC-257; UACC-257, read-out: percent growth inhibition): 39.6%
- GI50 (OVCAR-3; OVCAR-3): 7.19 µM
- inhibition at 10 µM (OVCAR-3; OVCAR-3, read-out: percent growth inhibition): 84.8%
- GI50 (OVCAR-4; OVCAR-4): 6.81 µM
- inhibition at 10 µM (OVCAR-4; OVCAR-4, read-out: percent growth inhibition): 63.8%
- GI50 (OVCAR-5; OVCAR-5): 15.6 µM
- inhibition at 10 µM (OVCAR-5; OVCAR-5, read-out: percent growth inhibition): 52.2%
- GI50 (NCI/ADR-RES): 7.54 µM
- GI50 (SK-OV-3; SK-OV-3): 16.1 µM
- inhibition at 10 µM (SK-OV-3; SK-OV-3, read-out: percent growth inhibition): 60.2%
- GI50 (786-0; 786-0): 15.5 µM
- inhibition at 10 µM (786-0; 786-0, read-out: percent growth inhibition): 126%
- GI50 (A498; A498): 14.4 µM
- inhibition at 10 µM (A498; A498, read-out: percent growth inhibition): 14.1%
- GI50 (CAKI-1; CAKI-1): 11.7 µM
- inhibition at 10 µM (CAKI-1; CAKI-1, read-out: percent growth inhibition): 36.7%
- GI50 (RXF 393; RXF 393): 12.3 µM
- inhibition at 10 µM (RXF 393; RXF 393, read-out: percent growth inhibition): 67.9%
- GI50 (DU-145; DU-145): 13.3 µM
- inhibition at 10 µM (DU-145; DU-145, read-out: percent growth inhibition): 53.9%
- GI50 (MCF7; MCF7): 2.79 µM
- inhibition at 10 µM (MCF7; MCF7, read-out: percent growth inhibition): 148%
- GI50 (BT-549; BT-549): 10.4 µM
- inhibition at 10 µM (BT-549; BT-549, read-out: percent growth inhibition): 111%
- GI50 (T-47D): 9.84 µM
- inhibition at 10 µM (T-47D; [2]): 105%
- GI50 (MDA-MB-468; MDA-MB-468): 6.3 µM
- inhibition at 10 µM (MDA-MB-468; MDA-MB-468, read-out: percent growth inhibition): 153%
- GI50 ([1]; Homo sapiens, 60 cell, read-out: Full panel GI50 mean): 10.8 µM
- Full panel Mean GI % ([1]; mean over NCI-60 panel, single dose 10 µM): 82.76%
